According to article PMC10343472, “Cyclopentenylcytosine (CPE-C): In Vitro and In Vivo Evaluation as an Antiviral against Adenoviral Ocular Infections” (Molecules, 2023):
Marks after values point to notes of the source that are not given here.

Key:
NZW rabbit eyes = assay: ocular toxicity in Draize rabbit model; format: in vivo, New Zealand white (NZW) rabbits; design: key to Maximum Mean Total Score: Draize/MMTS ocular toxicity score; for Draize irritation class: key: N = Non-Irritating; PN = Practically Non-Irritating
Procedure: CPE-C was evaluated for ocular toxicity using the standard Draize ocular scoring method which has been in use to determine the toxicity of cosmetics and chemicals since 1944 [39]. CPE-C ointments (3%, 2%, 1%, 0.5%) were administered topically 4 times daily for 4 days in uninfected, non-scarified NZW rabbit eyes (n = 2). Additionally, the 3% CPE-C concentration was also evaluated in rabbit eyes after corneal scarification. Overall, CPE-C, in concentrations up to 3% in an Aquaphor vehicle, appeared to be non-toxic to NZW rabbit eyes. […] There appeared to be no inhibition of corneal epithelial wound healing by the CPE-C in eyes that had undergone corneal epithelial scarification. Since the 3% CPE-C was the highest non-toxic concentration tested, this concentration was chosen for the in vivo antiviral efficacy testing in the Ad5/NZW rabbit ocular replication model.
CPE-C ointment (3%, 2%, 1%, 0.5%) was administered topically 4 times daily for 4 days in uninfected, non-scarified NZW rabbit eyes (n = 2). The CPE-C ointments were administered in approximately ½ inch strips per dose via a syringe with a 19-gauge cannula attached. The eyes were closed and gently rubbed to produce even distribution of antiviral over the entire ocular surface. The 3% CPE-C concentration was also evaluated in rabbit eyes after corneal scarification (general anesthesia with 40 mg/kg of ketamine and 4 mg/kg of xylazine administered intramuscularly and topical ocular anesthesia with proparacaine followed by 12 cross-hatched strokes with a #25 needle). All eyes were evaluated in a masked fashion for ocular toxicity using the Draize and MMTS scoring system on days 2, 3, and 4.

HAdV5 = assay: Ad5/NZW rabbit ocular replication model; format: in vivo, New Zealand white (NZW) rabbits; conditions: for number of HAdV5-positive cultures per group on days 1, 3, 4, 5, 7 and 14 compared with saline control: Fisher Exact Test, p < 0.05; for reduction of the duration of shedding: vs saline control; for Duration of HAdV5 Shedding, Mean ± Sd: n = 20; for Mean ± Sd Combined HAdV5 Ocular Titers, Early Phase (Days 1–5) / Mean ± Sd Combined HAdV5 Ocular Titers, Late Phase (Days 7–14): n = 80
Procedure: Using the Ad5/NZW rabbit ocular replication model, the current study was performed in duplicate trials using a total of 40 rabbits (20 per trial). Following the systemic and topical anesthesia described above, the rabbits were topically inoculated with 50 µL (1.5 × 10^6 PFU/eye) of HAdV5 in both eyes after corneal epithelial scarification (12 cross-hatched strokes of a #25 sterile needle). Twenty-four hours later, the rabbits were randomly assigned to one of four topical treatment groups (n = 10): (1) 3% CPE-C 4X/day, (2) 3% CPE-C 2X/day, (3) 0.5% Cidofovir 2X/day, and (4) Saline Control 4X/day. Rabbits were treated topically in both eyes according to the above treatment regimens for 7 days. The CPE-C ointments were administered as described above in the ocular toxicity study. Cidofovir and saline were administered as 37 µL aqueous drops. Following topical anesthesia with 0.5% proparacaine, ocular swabbing to recover HAdV5 from the tear film and corneal and conjunctival surfaces was performed on days 0, 1, 3, 4, 5, 7, 9, 11, and 14 after inoculation. The cultures were taken at least 1 h after the final dose of antiviral on the days the antivirals were administered. The swabs from each eye were placed individually into tubes containing 1 mL of tissue culture media and were frozen at −80 °C pending viral plaque assay.
The samples to be assayed were diluted 1:10 for up to 6 dilutions. One-tenth of a ml of both the undiluted sample and the dilutions was inoculated onto duplicate wells of 24-well multiplates containing A549 monolayers. The virus was adsorbed for 3 h at 37 °C in a 5% CO2-water vapor atmosphere. The plates were rocked intermittently to keep the cells from drying. Following adsorption, 1 mL of tissue culture media containing 0.5% methylcellulose was added to each well, and the plates were incubated at 37 °C in a 5% CO2-water vapor atmosphere. After the appropriate incubation period, the cells were fixed and stained with 0.5% gentian violet in formalin. The plates were dried, and the number of plaques per well was counted under a dissecting microscope. The viral titers were then calculated and expressed as plaque-forming units per milliliter (PFU/mL).
The in vitro EC50 data was analyzed with Two-Sample T-Tests using Minitab (Minitab Inc., State College, PA, USA) statistical software Version 21. Following the completion of both trials in the in vivo antiviral efficacy study, the data from each trial were analyzed statistically using Minitab and GraphPad online (https://www.graphpad.com/quickcalcs/contingency1/ (accessed on 16 February 2023)). […] Significance was established at the p ≤ 0.05 confidence level.

[1] = signs of systemic toxicity in the rabbit studies after topical ocular administration; format: in vivo; conditions: topical ocular administration in the doses given
Excerpt: Like 2′,3′-dideoxycytidine (ddC; zalcitabine), the most important unresolved issue affecting the future commercial development of CPE-C is systemic safety. The untimely deaths reported in 1995 of two cancer patients treated with intravenous CPE-C [35] raises serious concerns for the treatment of a self-limited non-blinding ocular infection. […] Therefore, the challenge for a pharmaceutical company will be to generate convincing and reassuring systemic safety data following topical administration. Given the negative clinical history associated with this compound, a persuasive package of unambiguous data will be required to convince appropriate governmental regulatory agencies to grant approval for the proposed ocular indication for CPE-C as the first topical anti-adenoviral drug.

[2] = design: method as in PMID 7554044; conditions: treatment of solid tumors; intravenous; cited from earlier work
[3] = design: method as in PMID 11431446; conditions: topical ocular; cited from earlier work
[4] = 1% ointment 4 times daily, non-scarified eyes, Day 2
[5] = 1% ointment 4 times daily, non-scarified eyes, Day 3
[6] = 1% ointment 4 times daily, non-scarified eyes, Day 4
[7] = 2% ointment 4 times daily, non-scarified eyes, Day 2
[8] = 2% ointment 4 times daily, non-scarified eyes, Day 3
[9] = 2% ointment 4 times daily, non-scarified eyes, Day 4
[10] = 3% ointment 4 times daily, non-scarified eyes, Day 2
[11] = 3% ointment topical 2X/Day for 7 days
[12] = 3% ointment topical 4X/Day for 7 days
[13] = 0.5% drops topical 2X/Day for 7 days

Nc1ccn([C@@H]2C=C(CO)[C@@H](O)[C@H]2O)c(=O)n1 [CPE-C, Cyclopentenylcytosine]
Maximum Mean Total Score (NZW rabbit eyes; 0.5% ointment 4 times daily, non-scarified eyes, Day 2): 1.0
Maximum Mean Total Score (NZW rabbit eyes; 0.5% ointment 4 times daily, non-scarified eyes, Day 3): 1.0
Maximum Mean Total Score (NZW rabbit eyes; 0.5% ointment 4 times daily, non-scarified eyes, Day 4): 1.0
Draize irritation class (NZW rabbit eyes; [4]): N
Maximum Mean Total Score (NZW rabbit eyes; [4]): 0.0
Draize irritation class (NZW rabbit eyes; [5]): N
Maximum Mean Total Score (NZW rabbit eyes; [5]): 0.0
Draize irritation class (NZW rabbit eyes; [6]): N
Maximum Mean Total Score (NZW rabbit eyes; [6]): 0.0
Draize irritation class (NZW rabbit eyes; [7]): N
Maximum Mean Total Score (NZW rabbit eyes; [7]): 0.0
Draize irritation class (NZW rabbit eyes; [8]): N
Maximum Mean Total Score (NZW rabbit eyes; [8]): 0.0
Draize irritation class (NZW rabbit eyes; [9]): N
Maximum Mean Total Score (NZW rabbit eyes; [9]): 0.0
Maximum Mean Total Score (NZW rabbit eyes; 3% ointment 4 times daily, eyes with scarification, Day 2): 1.0
Maximum Mean Total Score (NZW rabbit eyes; 3% ointment 4 times daily, eyes with scarification, Day 3): 1.0
Maximum Mean Total Score (NZW rabbit eyes; 3% ointment 4 times daily, eyes with scarification, Day 4): 1.0
Draize irritation class (NZW rabbit eyes; [10]): N
Maximum Mean Total Score (NZW rabbit eyes; [10]): 0.0
Maximum Mean Total Score (NZW rabbit eyes; 3% ointment 4 times daily, non-scarified eyes, Day 3): 2.0
Maximum Mean Total Score (NZW rabbit eyes; 3% ointment 4 times daily, non-scarified eyes, Day 4): 2.0
ocular irritation by Draize scoring (NZW rabbit eyes; 3% ointment, scarified eyes, 4 times daily for 4 days): practically non-irritating
inhibition of corneal epithelial wound healing (NZW rabbit eyes; eyes that had undergone corneal epithelial scarification): no inhibition
ocular irritation by Draize scoring (NZW rabbit eyes; rabbit, in vivo): non-irritating or practically non-irritating
number of HAdV5-positive cultures per group on days 1, 3, 4, 5, 7 and 14 compared with saline control (HAdV5; 3% 2X/day): significantly reduced
number of HAdV5-positive cultures per group on days 1, 3, 4, 5, 7 and 14 compared with saline control (HAdV5; 3% 4X/day): significantly reduced
reduction of the duration of shedding (HAdV5; 3% administered 2X per day for 7 days): 5.6 days
reduction of the duration of shedding (HAdV5; 3% administered 4X per day for 7 days): 6.8 days
HAdV5-Positive Eye Cultures/Total, Early Phase (Days 1–5) (HAdV5; [11]): 29/80
HAdV5-Positive Eye Cultures/Total, Early Phase (Days 1–5), percent (HAdV5; [11]): 36%
HAdV5-Positive Eye Cultures/Total, Late Phase (Days 7–14) (HAdV5; [11]): 2/80
HAdV5-Positive Eye Cultures/Total, Late Phase (Days 7–14), percent (HAdV5; [11]): 3%
HAdV5-Positive Eye Cultures/Total, Overall (Days 1–14) (HAdV5; [11]): 31/160
HAdV5-Positive Eye Cultures/Total, Overall (Days 1–14), percent (HAdV5; [11]): 19%
Duration of HAdV5 Shedding, Mean ± Sd (HAdV5; [11]): 2.5 ± 2.3 ^d Days
Mean ± Sd Combined HAdV5 Ocular Titers, Early Phase (Days 1–5) (HAdV5; [11]): 3.5 ± 18.1 × 10^1 b Log10 PFU/mL
Mean ± Sd Combined HAdV5 Ocular Titers, Late Phase (Days 7–14) (HAdV5; [11]): 3.6 ± 25.2 × 10^0 c Log10 PFU/mL
HAdV5-Positive Eye Cultures/Total, Late Phase (Days 7–14) (HAdV5; [12]): 6/80
HAdV5-Positive Eye Cultures/Total, Late Phase (Days 7–14), percent (HAdV5; [12]): 8%
HAdV5-Positive Eye Cultures/Total, Overall (Days 1–14) (HAdV5; [12]): 24/160
HAdV5-Positive Eye Cultures/Total, Overall (Days 1–14), percent (HAdV5; [12]): 15%
Duration of HAdV5 Shedding, Mean ± Sd (HAdV5; [12]): 1.3 ± 1.6 ^d Days
Mean ± Sd Combined HAdV5 Ocular Titers, Early Phase (Days 1–5) (HAdV5; [12]): 1.6 ± 4.8 × 10^1 b Log10 PFU/mL
Mean ± Sd Combined HAdV5 Ocular Titers, Late Phase (Days 7–14) (HAdV5; [12]): 0.9 ± 4.4 × 10^0 c Log10 PFU/mL
signs of systemic toxicity (decreased appetite, weight loss, wasting, death) [1]: no obvious signs of systemic toxicity
patient deaths during clinical trials [2]: Two patient deaths from refractory hypotension

Nc1ccn(C[C@@H](CO)OCP(=O)(O)O)c(=O)n1 [Cidofovir, cidofovir, reference compound]
number of HAdV5-positive cultures per group on days 1, 3, 4, 5, 7 and 14 compared with saline control (HAdV5; 0.5% 2X/day): significantly reduced
HAdV5-positive cultures on day 9 compared with saline control (HAdV5; 0.5% 2X/day, p = 0.0197, FET): significantly fewer
HAdV5-Positive Eye Cultures/Total, Early Phase (Days 1–5) (HAdV5; [13]): 26/80
HAdV5-Positive Eye Cultures/Total, Early Phase (Days 1–5), percent (HAdV5; [13]): 33%
HAdV5-Positive Eye Cultures/Total, Late Phase (Days 7–14) (HAdV5; [13]): 1/80
HAdV5-Positive Eye Cultures/Total, Late Phase (Days 7–14), percent (HAdV5; [13]): 1%
HAdV5-Positive Eye Cultures/Total, Overall (Days 1–14) (HAdV5; [13]): 27/160
HAdV5-Positive Eye Cultures/Total, Overall (Days 1–14), percent (HAdV5; [13]): 17%
Duration of HAdV5 Shedding, Mean ± Sd (HAdV5; [13]): 2.0 ± 1.8 ^d Days
Mean ± Sd Combined HAdV5 Ocular Titers, Early Phase (Days 1–5) (HAdV5; [13]): 6.7 ± 12.7 × 10^0 b Log10 PFU/mL
Mean ± Sd Combined HAdV5 Ocular Titers, Late Phase (Days 7–14) (HAdV5; [13]): 0.3 ± 2.2 × 10^0 c Log10 PFU/mL
toxicity leading to discontinuation of development of topical cidofovir in the USA [3]: epiphora due to secondary lacrimal canalicular blockade
